In patent US20090233999A1, “COMPOSITIONS AND THERAPEUTIC METHODS INVOLVING ISOFLAVONES AND ANALOGUES THEREOF” (NOVOGEN RESEARCH PTY LTD, priority 1999, published 2009):

Key:
ER beta receptor = target: T1, ER beta receptor (Homo sapiens, UniProt Q92731); test: Estrogen Receptor Beta Competitor Assay Core HTS Kit (Panvera); conditions: competitive binding; kind of quantity not given; read-out: binding affinity, ER beta receptor
T1 construct: purchased Panvera Corporation P2614/2615
Protocol: The binding affinity of various compounds of the invention for both subtypes of the estrogen receptor was determined with the “Estrogen Receptor Alpha or Beta Competitor Assay Core HTS Kit” supplied by Panvera Corporation (Product No. P2614/2615).

rat aortic ring = test: Rat aortic ring assay, contractile response to noradrenaline; conditions: 1 μg/ml
Protocol: The vasodilatory capacity was examined ex vivo using the rat aortic ring assay.
Male Sprague-Dawley rats (250±50 g) were euthanased with 80% CO2 and 20% O2. The thoracic aorta was excised and quickly mounted in organ-baths as described. Full concentration-contractile curves were obtained to noradrenaline (0.1 nM-[…]) with and without test compounds delivered at a concentration of 1 μg/ml. Experiments were repeated in n=5 different rings from 5 different animals. Only one compound at any one concentration was tested on any one ring from any one animal. Sigmoidal dose response curves were fitted for the data and the logEC50 and the Ema, calculated (Prism 4, GraphPad Software). The difference in these values between the presence and absence of test compound was calculated using a two-tailed paired t test. The effects of β-oestrodiol and vehicle alone were examined as a positive and negative control respectively.

[1] = DPPH free radical scavenging
Protocol: The antioxidant (free radical trapping) activity of test compounds was assessed using the stable free radical compound 2,2-diphenyl-1-picrylhydrazyl (DPPH). A stock solution of DPPH was prepared at a concentration of 0.1 mM in ethanol and mixed for 10 minutes prior to use. Test compounds at a concentration of 100 μM were reacted with DPPH for 20 minutes, after which time the absorbance at 517 nm was determined and the change in absorbance compared to a reagent blank (DPPH with ethanol alone). A dose response curve was produced for those compounds with free radical scavenging activity (ΔAbs>0.3) at 100 μM. The IC50 value was estimated as the concentration of test compound that caused a 0.6 change in absorbance (with 1.2 absorbance units representing total scavenging of the DPPH radical).

[2] = tested on: COX (PGE2 and TXB2 synthesis); test: LPS-induced prostanoid (PGE2, TXB2) synthesis in human monocytes; assay type: cell-based; conditions: LPS 200 ng/mL, 18 hrs, data at 10 μM
Protocol: Human peripheral blood monocytes were isolated from buffy coats by lymphoprep gradient separation followed by counter-current centrifugal elutriation. Test compounds were dissolved in DMSO and added to fresh monocytes to achieve concentrations of 0, 10 and 100 μM. After 30 min, lipopolysaccharide (LPS) was added to achieve a final concentration of 200 ng/mL. After incubation for 18 hrs at 37° C. in 5% CO2, supernatants were removed and PGE2 and TXB2 (the stable hydrolysis product of TXA2) production were measured by radioimmunoassay (RIA). ANOVA followed by Newman-Keuls multiple comparisons test was used to examine differences between doses and the control values.

[3] = tested on: BALB/c mice (AA-induced ear swelling); conditions: regardless of route of administration; cited from earlier work

T1 sequence (Q92731 whole entry): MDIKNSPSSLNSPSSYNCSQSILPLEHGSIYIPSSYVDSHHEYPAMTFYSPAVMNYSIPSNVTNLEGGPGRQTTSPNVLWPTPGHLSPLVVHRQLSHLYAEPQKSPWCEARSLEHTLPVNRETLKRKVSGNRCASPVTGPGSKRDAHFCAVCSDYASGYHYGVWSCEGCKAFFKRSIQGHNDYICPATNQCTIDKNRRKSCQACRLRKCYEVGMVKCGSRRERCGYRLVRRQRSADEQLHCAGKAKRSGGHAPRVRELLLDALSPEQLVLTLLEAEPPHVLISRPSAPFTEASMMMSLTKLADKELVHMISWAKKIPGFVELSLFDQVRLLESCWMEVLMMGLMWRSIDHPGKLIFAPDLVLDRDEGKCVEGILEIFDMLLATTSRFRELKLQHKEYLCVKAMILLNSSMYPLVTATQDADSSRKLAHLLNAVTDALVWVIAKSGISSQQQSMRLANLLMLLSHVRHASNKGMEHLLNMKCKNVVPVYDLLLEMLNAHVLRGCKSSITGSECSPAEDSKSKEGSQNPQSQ

SMILES | melting point [°C] | AA-induced oedema [3] | also measured
O=C1c2cc(Cl)c(O)cc2OCC1c1ccc(O)cc1 (stereo not shown) [6-Chloro-4′,7-dihydroxyisoflavan-4-one] |  |  | IC50 (ER beta receptor): 32.1 µM
Cc1c(O)ccc2c1OCC(c1ccc(O)cc1)=C2 [Cpd. 13, 4′,7-Dihydroxy-8-methylisoflav-3-ene] | 190 to 193 |  | contractile response (logEC50) of the aortic ring to noradrenaline (rat aortic ring): significantly inhibited; strength of the contractile response (Emax) (rat aortic ring): reduced; ability to scavenge free radicals ([1]; DPPH): limited activity; EC50 ([1]; DPPH 0.1 mM, 20 minutes, read-out: Free radical scavenging ability EC50): 94 µM
Cc1c(O)ccc2c1OCC(c1ccccc1)=C2 [Cpd. 17, 7-Hydroxy-8-methylisoflav-3-ene] |  |  | COX inhibitory activity (inhibition of PGE2 and TXA2 production) [2]: significant COX inhibitory activity
CC(=O)Oc1ccc(-c2coc3cc(OC(C)=O)cc(C)c3c2=O)cc1 [Example 5, 4′,7-Diacetoxy-5-methylisoflavone] | 195 to 197 |  | 
CC(=O)Oc1ccc(C2COc3cc(OC(C)=O)cc(C)c3C2=O)cc1 (stereo not shown) [Example 6, 4′,7-Diacetoxy-5-methylisoflavan-4-one] | 143 to 145 |  | 
CC(=O)Oc1ccccc1C(=O)O [aspirin] |  | did not influence | 
CC(C)Cc1ccc(C(C)C(=O)O)cc1 (stereo not shown) [ibuprofen] |  | did not influence | 
COc1ccc2c(c1)c(CC(=O)O)c(C)n2C(=O)c1ccc(Cl)cc1 [indomethacin] |  | does inhibit | 
CN1C(C(=O)Nc2ccccn2)=C(O)c2ccccc2S1(=O)=O [piroxicam] |  | did not influence | 
